In ChEMBL document CHEMBL3045115, “Synthesis and antimycobacterial activity of novel 4-[5-(substituted phenyl)-1-phenyl-4,5-dihydro-1H-3-pyrazolyl]-2-methylphenol derivatives” (2006) one finds MIC data, which are given here for twelve compounds.

As a reminder, the MIC is the lowest concentration that inhibits growth of the organism.

≈ marks a conversion by molar mass, not a printed value.

This test concerns Mycobacterium tuberculosis. Briefly: Antimycobacterial activity against isoniazid-resistant Mycobacterium tuberculosis H37Rv ATCC 27294 using alamar blue staining by broth microdilution assay. The format is functional. For orientation: The colour change of resazurin is a common sign of viable cells or microbes.
For `NNC(=O)c1ccncc1` [ISONIAZID], the MIC is 0.63 µg/mL (≈ 4.59 µM).
`COc1ccc(C2CC(c3ccc(O)c(C)c3)=NN2c2ccccc2)cc1` (configuration not stated) had an MIC of 1.45 µg/mL (≈ 4.05 µM). This MIC is about 2.3-fold higher than that of the compound before.
As for `Cc1cc(C2=NN(c3ccccc3)C(c3ccc(F)cc3)C2)ccc1O` (configuration not stated), the figure is 0.62 µg/mL (≈ 1.79 µM); as for `Cc1cc(C2=NN(c3ccccc3)C(c3ccco3)C2)ccc1O` (configuration not stated), 0.81 µg/mL (≈ 2.54 µM); as for `COc1cc(C2CC(c3ccc(O)c(C)c3)=NN2c2ccccc2)cc(OC)c1OC` (configuration not stated), 1.86 µg/mL (≈ 4.44 µM).
The figure for `Cc1cc(C2=NN(c3ccccc3)C(c3ccccc3)C2)ccc1O` (configuration not stated) is 1.6 µg/mL (≈ 4.87 µM); for `Cc1cc(C2=NN(c3ccccc3)C(c3ccc(Cl)cc3)C2)ccc1O` (configuration not stated) it is 1.24 µg/mL (≈ 3.42 µM).
The figure for `Cc1cc(C2=NN(c3ccccc3)C(c3cccc([N+](=O)[O-])c3)C2)ccc1O` (configuration not stated) is 1.96 µg/mL (≈ 5.25 µM).
`Cc1cc(C2=NN(c3ccccc3)C(c3c(Cl)cccc3Cl)C2)ccc1O` (configuration not stated) showed an MIC of 0.92 µg/mL (≈ 2.32 µM).
As for `Cc1cc(C2=NN(c3ccccc3)C(c3ccc(N(C)C)cc3)C2)ccc1O` (configuration not stated), the figure is 0.84 µg/mL (≈ 2.26 µM); as for `Cc1cc(C2=NN(c3ccccc3)C(c3ccccc3Cl)C2)ccc1O` (configuration not stated), 1 µg/mL (≈ 2.76 µM).
`COc1ccc(C2CC(c3ccc(O)c(C)c3)=NN2c2ccccc2)cc1OC` (configuration not stated) returned an MIC of 1.16 µg/mL (≈ 2.99 µM).
